Experimental data reported in US20230072421A1, “TARGETED RADIOPHARMACEUTICALS FOR THE DIAGNOSIS AND TREATMENT OF PROSTATE CANCER” (Bayer AS, priority 2019, published 2023).

Key:
VCaP cells = assay: Cell proliferation assay (CellTiter-Glo, 5-day exposure), VCaP; type: cell-based; settings: 4000 cells/well, Th-227 labelled at 375 kBq/nmol, mean of 1 to 6 experiments
Outline: (§1)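 CellTiter-Glo luminescence, day 0 (sister plates) vs day 5 of exposure to Th-227-labelled PSMA ligands. Seeding: VCaP 4000 cells/well; 22Rv1, C4-2, LNCaP 1000 cells/well; overnight 37 °C, 5% CO2 before treatment.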

C4-2 cells = assay: Cell proliferation assay (CellTiter-Glo, 5-day exposure), C4-2; type: cell-based; settings: C4-2, 1000 cells/well, Th-227 labelled at 375 kBq/nmol, mean of 1 to 6 experiments
Outline: as §1

22Rv1 cells = assay: Cell proliferation assay (CellTiter-Glo, 5-day exposure), 22Rv1; type: cell-based; settings: 22Rv1, 1000 cells/well, Th-227 labelled at 375 kBq/nmol, mean of 1 to 6 experiments
Outline: as §1

[1] = tested on: LNCaP human prostate cancer cells; assay: LNCaP xenograft efficacy study (T/C tumor area); type: in vivo, SCID mice; settings: Example I
Outline: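 SCID mice with testosterone pellet bearing s.c. flank LNCaP xenografts (5×10^6 cells in Matrigel) were treated i.v. with a defined radioactive dose once tumors reached 35-50 mm^2 (n=10/group). Tumor area (caliper, longest diameter × perpendicular) measured 2-3× weekly; T/C ratio calculated from tumor areas when vehicle group closed.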

[2] = Biodistribution study in LNCaP tumor-bearing mice (Th227 counted in organs); type: in vivo, SCID mice; settings: 500 kBq/kg; for Th-227 in Blood / Th-227 in Femur and tibia / Th-227 in Kidneys / Th-227 in Liver / Th-227 in Salivary gland / Th-227 in Spleen / Th-227 in Tumor / Th-227 in prostate: study b2999
Procedure: SCID mice were randomly assigned to experimental groups, ten animals per group (efficacy) or n=3-5 per time point of biodistribution study. At the initiation of the study, a testosterone pellet was subcutaneously transplanted, the animals were shaved, tattooed and each cage was labeled with the cage number, study number and number of animals per cage.
LNCaP human prostate cancer cells were cultured as described according to the supplier's protocols. Cells were harvested for transplantation in a subconfluent (70%) state. Animals were injected with 5×10^6 LNCaP cells suspended in 100% Matrigel subcutaneously into the flank of the mice.
Biodistribution study: When tumors reached a predetermined size in mice of ˜50 mm^2 animals were randomized into groups (n=3 animals/time point) and the radioactive compound was once applied intravenously. The i.v. application volume was 100 μl/mice.
At the predetermined time point, n=3 animals were sacrificed, the organs removed, weight and measured in a Germanium detector to count the Th227 in the sample.

O=C(O)CCC(NC(=O)NC(CCCCNC(=O)C(Cc1ccc2ccccc2c1)NC(=O)C1CCC(CNC(=S)Nc2ccc(CC(CN(CCNC(=O)c3ccn(CCO)c(=O)c3[O-])CCNC(=O)c3ccn(CCO)c(=O)c3[O-])CN(CCNC(=O)c3ccn(CCO)c(=O)c3[O-])CCNC(=O)c3ccn(CCO)c(=O)c3[O-])cc2)CC1)C(=O)O)C(=O)O.[227Th+4] (centres unmarked) [Example 1-F-227Th]
Proliferation assay on cancer cell lines by TTCs Default Pivot #3 IC50 [kBq/mL] VCap 4000cells 375kBq/nmol (mean) (VCaP cells): 3.07 kBq/mL
Proliferation assay on cancer cell lines by TTCs Default Pivot #3 IC50 [kBq/mL] C4-2 1000cells 375kBq/nmol (mean) (C4-2 cells): 2.14 kBq/mL
Proliferation assay on cancer cell lines by TTCs Default Pivot #3 IC50 [kBq/mL] 22Rv1 1000cells 375kBq/nmol (mean) (22Rv1 cells): 1.06 kBq/mL
T/Carea ([1]; day 27, 2 x 400 + 2 x 750 kBq/kg weekly): 1.03
T/Carea ([1]; day 37, 2 x 400 + 3 x 750 kBq/kg): 0.82
Background in blood, liver and spleen (in words) ([2]; comparison of % injected dose per gram tissue): highest background
Th-227 in Blood ([2]; 0.25 h): 4.80 % ID Th-227/g organ
Th-227 in Femur and tibia ([2]; 0.25 h): 1.46 % ID Th-227/g organ
Th-227 in Kidneys ([2]; 0.25 h): 51.79 % ID Th-227/g organ
Th-227 in Liver ([2]; 0.25 h): 2.63 % ID Th-227/g organ
Th-227 in Salivary gland ([2]; 0.25 h): 0.31 % ID Th-227/g organ
Th-227 in Spleen ([2]; 0.25 h): 2.35 % ID Th-227/g organ
Th-227 in Tumor ([2]; 0.25 h): 9.36 % ID Th-227/g organ
Th-227 in prostate ([2]; 0.25 h): 3.62 % ID Th-227/g organ
Th-227 in Blood ([2]; 1 hr): 2.28 % ID Th-227/g organ
Th-227 in Femur and tibia ([2]; 1 hr): 1.68 % ID Th-227/g organ
Th-227 in Kidneys ([2]; 1 hr): 58.96 % ID Th-227/g organ
Th-227 in Liver ([2]; 1 hr): 2.41 % ID Th-227/g organ
Th-227 in Salivary gland ([2]; 1 hr): 2.68 % ID Th-227/g organ
Th-227 in Spleen ([2]; 1 hr): 1.86 % ID Th-227/g organ
Th-227 in Tumor ([2]; 1 hr): 10.58 % ID Th-227/g organ
Th-227 in prostate ([2]; 1 hr): 4.83 % ID Th-227/g organ
Th-227 in Blood ([2]; 6 hr): 0.35 % ID Th-227/g organ
Th-227 in Femur and tibia ([2]; 6 hr): 1.30 % ID Th-227/g organ
Th-227 in Kidneys ([2]; 6 hr): 67.34 % ID Th-227/g organ
Th-227 in Liver ([2]; 6 hr): 2.19 % ID Th-227/g organ
Th-227 in Salivary gland ([2]; 6 hr): 1.48 % ID Th-227/g organ
Th-227 in Spleen ([2]; 6 hr): 1.51 % ID Th-227/g organ
Th-227 in Tumor ([2]; 6 hr): 13.03 % ID Th-227/g organ
Th-227 in prostate ([2]; 6 hr): 1.97 % ID Th-227/g organ
Th-227 in Blood ([2]; 24 h): 0.06 % ID Th-227/g organ
Th-227 in Femur and tibia ([2]; 24 h): 0.88 % ID Th-227/g organ
Th-227 in Kidneys ([2]; 24 h): 34.39 % ID Th-227/g organ
Th-227 in Liver ([2]; 24 h): 2.49 % ID Th-227/g organ
Th-227 in Salivary gland ([2]; 24 h): 0.75 % ID Th-227/g organ
Th-227 in Spleen ([2]; 24 h): 0.94 % ID Th-227/g organ
Th-227 in Tumor ([2]; 24 h): 6.05 % ID Th-227/g organ
Th-227 in prostate ([2]; 24 h): 0.34 % ID Th-227/g organ
Th-227 in Blood ([2]; 72 h): 0.02 % ID Th-227/g organ
Th-227 in Femur and tibia ([2]; 72 h): 0.79 % ID Th-227/g organ
Th-227 in Kidneys ([2]; 72 h): 12.99 % ID Th-227/g organ
Th-227 in Liver ([2]; 72 h): 1.96 % ID Th-227/g organ
Th-227 in Salivary gland ([2]; 72 h): 0.73 % ID Th-227/g organ
Th-227 in Spleen ([2]; 72 h): 1.14 % ID Th-227/g organ
Th-227 in Tumor ([2]; 72 h): 3.40 % ID Th-227/g organ
Th-227 in prostate ([2]; 72 h): 0.68 % ID Th-227/g organ
Th-227 in Blood ([2]; 168 h): 0.00 % ID Th-227/g organ
Th-227 in Femur and tibia ([2]; 168 h): 1.07 % ID Th-227/g organ
Th-227 in Kidneys ([2]; 168 h): 6.79 % ID Th-227/g organ
Th-227 in Liver ([2]; 168 h): 2.14 % ID Th-227/g organ
Th-227 in Salivary gland ([2]; 168 h): 0.74 % ID Th-227/g organ
Th-227 in Spleen ([2]; 168 h): 1.34 % ID Th-227/g organ
Th-227 in Tumor ([2]; 168 h): 1.13 % ID Th-227/g organ
Th-227 in prostate ([2]; 168 h): 0.13 % ID Th-227/g organ
Th-227 in Blood ([2]; 336 h): 0.00 % ID Th-227/g organ
Th-227 in Femur and tibia ([2]; 336 h): 1.18 % ID Th-227/g organ
Th-227 in Kidneys ([2]; 336 h): 2.29 % ID Th-227/g organ
Th-227 in Liver ([2]; 336 h): 1.69 % ID Th-227/g organ
Th-227 in Salivary gland ([2]; 336 h): 0.42 % ID Th-227/g organ
Th-227 in Spleen ([2]; 336 h): 1.41 % ID Th-227/g organ
Th-227 in Tumor ([2]; 336 h): 0.74 % ID Th-227/g organ
Th-227 in prostate ([2]; 336 h): 0.22 % ID Th-227/g organ
